In patent US10130095B2, “Fungicidal compositions of pyrazolecarboxylic acid alkoxyamides” (BASF AGRO B.V., priority 2014, dated 2018):

What was measured:
Botrytis cinerea = experiment: in vivo preventive test on Botrytis test (beans); details: evaluated 2 days after inoculation
Experimental: Solvent: 24.5 parts by weight of acetone • 24.5 parts by weight of dimethylacetamide Emulsifier: 1 part by weight of alkylaryl polyglycol ether To produce a suitable preparation of active compound, 1 part by weight of active compound is mixed with the stated amounts of solvent and emulsifier, and the concentrate is diluted with water to the desired concentration. To test for preventive activity, young plants are sprayed with the preparation of active compound. After the spray coating has dried on, 2 small pieces of agar covered with growth of Botrytis cinerea are placed on each leaf. The inoculated plants are placed in a darkened chamber at 20° C. and a relative at mospheric humidity of 100%. 2 days after the inoculation, the size of the lesions on the leaves is evaluated. 0% means an efficacy which corresponds to that of the untreated control, while an efficacy of 100% means that no disease is observed.

Septoria tritici = experiment: in vivo preventive Septoria tritici test (wheat); details: 15 ppm a.i., evaluated 21 days after inoculation
Experimental: Solvent: 49 parts by weight of N,N-dimethylacetamide Emulsifier: 1 part by weight of alkylaryl polyglycol ether To produce a suitable preparation of active compound, 1 part by weight of active compound or active compound combination is mixed with the stated amounts of solvent and emulsifier, and the concentrate is diluted with water to the desired concentration. To test for preventive activity, young plants are sprayed with the preparation of active compound or active compound combination at the stated rate of application. After the spray coating has been dried, the plants are sprayed with a spore suspension of Septoria tritici. The plants remain for 48 hours in an incubation cabinet at approximately 20° C. and a relative atmospheric humidity of approximately 100% and afterwards for 60 hours at approximately 15° C. in a translucent incubation cabinet at a relative atmospheric humidity of approximately 100%. The plants are placed in the greenhouse at a temperature of approximately 15° C. and a relative atmospheric humidity of approximately 80%. The test is evaluated 21 days after the inoculation. 0% means an efficacy which corresponds to that of the untreated control, while an efficacy of 100% means that no disease is observed.

Alternaria solani = experiment: in vivo preventive test on Alternaria test (tomatoes); details: evaluated 3 days after inoculation
Experimental: (§1) Solvent: 24.5 parts by weight of acetone • 24.5 parts by weight of dimethylacetamide Emulsifier: 1 part by weight of alkylaryl polyglycol ether To produce a suitable preparation of active compound, 1 part by weight of active compound is mixed with the stated amounts of solvent and emulsifier, and the concentrate is diluted with water to the desired concentration. To test for preventive activity, young plants are sprayed with the preparation of active compound at the stated rate of application. After the spray coating has dried on, the plants are inoculated with an aqueous spore suspension of Alternaria solani. The plants are then placed in an incubation cabinet at approximately 20° C. and a relative atmospheric humidity of 100%. The test is evaluated 3 days after the inoculation. 0% means an efficacy which corresponds to that of the untreated control while an efficacy of 100% means that no disease is observed.

Venturia inaequalis = experiment: in vivo preventive test on Venturia test (apples); details: evaluated 10 days after inoculation
Experimental: as §1, with “conidia” for “spore”, “the causal agent of apple scab (Venturia inaequalis) and” for “Alternaria solani. The plants are”, “remain for 1 day” for “placed”, “The plants are then placed in a greenhouse at approximately 21° C. and a relative atmospheric humidity of approximately 90%. The” for “The”, “10” for “3”, “control,” for “control”

SMILES	Efficacy in % found (Botrytis cinerea; 5 ppm a.i.)	Efficacy in % found (Septoria tritici)	Efficacy in % found (Alternaria solani; 1.25 ppm a.i.)	Efficacy in % found (Alternaria solani; 2.5 ppm a.i.)	Efficacy in % found (Venturia inaequalis; 1.25 ppm a.i.)	Efficacy in % found (Botrytis cinerea; 0.5 ppm a.i.)	Efficacy in % found (Venturia inaequalis; 0.125 ppm a.i.)
CC(O)(Cn1cncn1)c1ccc(Oc2ccc(Cl)cc2)cc1C(F)(F)F (centres unmarked) [(B1-1), 2-[4-(4-Chlorophenoxy)-2-(trifluoromethyl)phenyl]-1-(1H-1,2,4-triazol-1-yl)propan-2-ol]	20%	0%	–	–	–	–	–
CCC(O)(Cn1cncn1)c1ccc(Oc2ccc(Cl)cc2)cc1C(F)(F)F (centres unmarked) [(B1-2), 2-[4-(4-chlorophenoxy)-2-(trifluoromethyl)phenyl]-1-(1H-1,2,4-triazol-1-yl)butan-2-ol]	–	13%	8%	30%	30%	–	–
CON(C(=O)c1cn(C)nc1C(F)F)C(C)Cc1c(Cl)cc(Cl)cc1Cl (centres unmarked) [(I-1), 3-(difluoromethyl)-N-methoxy-1-methyl-N-[1-(2,4,6-trichlorophenyl)propan-2-yl]-1H-pyrazole-4-carboxamide]	–	–	–	–	–	8%	76%
